Where a name gives a salt, the structure may show the parent alone.
Test system: commercially available normal plasma (Coagtrol N)
Assay: Fibrinogen measurement by thrombin time method: coagulation time and change in scattered light intensity of normal plasma after adding thrombin reagent
Type: biochemical
Details: for coagulation time versus addition amount (FIG. 3): agent added to HEPES buffer (pH 7.5) specimen diluent, buffer alone 4.6 seconds
Procedure: When a fibrinogen concentration in a plasma specimen is measured by a thrombin time method, in general, thrombin is added to plasma to measure a coagulation time, and the concentration is determined from a standard curve prepared using standard solutions having known fibrinogen concentrations. In the procedure, 90 μL of a specimen diluent are added to and mixed with 10 μL of specimen plasma, subsequently 50 μL of a thrombin-containing reagent are added as a blood coagulation activator-containing reagent, and a coagulation time is measured.
In this example, commercially available normal plasma (Coagtrol N, manufactured by Sysmex Corporation) as the plasma specimen, a Coagpia Fbg thrombin reagent (manufactured by Sekisui Medical Co., Ltd.) as the thrombin-containing reagent, and a full-automated blood coagulation time analyzer Coagrex 800 (manufactured by Sysmex Corporation) as a coagulation time measurement apparatus were used. This apparatus employs a scattered light detection method, and change data of scattered light intensity with time can also be obtained along with the coagulation time.
When an HEPES buffer (pH 7.5) was used as the specimen diluent, the commercially available normal plasma coagulated in several seconds (4.6 seconds).
Commercially available normal plasma was measured in the same manner as in Example 1 using the specimen diluent (HEPES buffer, pH 7.5) in which the amount of the blood coagulation time prolonging agent added was adjusted so as to obtain the similar coagulation time. The comparative results of the maximum of a change ΔH in scattered light intensity and of the simultaneous reproducibility of the measurements between in the conventional method and in the present invention were shown in Table 1.
A specimen diluent containing sodium chloride as the blood coagulation time prolonging agent was defined as a conventional method A and a specimen diluent further containing polyethylene glycol (molecular weight: 20000) (hereinafter, referred to as PEG 20000) as an enhancer of a change in light intensity in the conventional method A was defined as a conventional method B, and the specimen diluents were compared with a specimen diluent employing aminoguanidine hydrochloride (present invention) which served as both of the blood coagulation time prolonging agent and the enhancer of a change in light intensity. It should be noted that an HEPES buffer (pH 7.5) was used as a buffer in all of the cases. Further, the concentration of PEG 20000 to be added in the conventional method B was set to 0.1%, because a large amount of PEG 20000 could increase the viscosity of diluent and reduce the accuracy of sampling. The coagulation time of commercially available normal plasma was measured in the same manner as in Example 1 using each specimen diluent. The change of the scattered light intensity in the conventional method B with the addition of PEG 20000 became larger than in the conventional method A without the addition.

[1] = Table 1, agent in specimen diluent (HEPES buffer pH 7.5): NaCl 145 mM, NaBr 110, KBr 105, KCl 135, LiCl 135, guanidine HCl 90, guanidine phosphate 30, guanidine sulfamate 55, aminoguanidine HCl 90, arginine HCl 55, arginine methyl ester 17 mM, single measurement for conventional methods (2)-(5), ten times for the others
[2] = Table 2, specimen diluent HEPES buffer pH 7.5, NaCl 150 mM (A), NaCl 150 mM + PEG 20000 0.1% (B), aminoguanidine hydrochloride 90 mM, mean of three times measurement

| Compound | Coagulation time [1] [s] | Coagulation time [2] [s] | coagulation time versus addition amount (FIG. 3) |
| --- | --- | --- | --- |
| Cl.N=C(N)NCCC[C@H](N)C(=O)O [Arginine hydrochloride] | 10.3 |  |  |
| [Cl-].[Na+] [Sodium chloride] | 10.7 | 11.6 | prolonged in an addition concentration-dependent manner |
| N=C(N)N.O=P(O)(O)O [Guanidine phosphate] | 10.4 |  |  |
| [Br-].[Na+] [Sodium bromide] | 11.3 |  | prolonged in an addition concentration-dependent manner |
| COC(=O)[C@@H](N)CCCNC(=N)N [Arginine methyl ester] | 11 |  |  |
| [Cl-].[Li+] [Lithium chloride] | 10.8 |  |  |
| N=C(N)NN [Aminoguanidine hydrochloride] | 9.7 | 10.4 | prolonged in an addition concentration-dependent manner |
| N=C(N)N [Guanidine hydrochloride] | 10.3 |  |  |
| N=C(N)N.NS(=O)(=O)O [Guanidine sulfamate] | 11.2 |  |  |
| [Br-].[K+] [Potassium bromide] | 11.4 |  |  |
| [Cl-].[K+] [Potassium chloride] | 10.8 |  |  |
